The conditions of data set [1]: cited from earlier work.
The next data set has as its system Ebola virus. It counts as cell-based, Ebola Zaire.
For the next data set, the system named is Measles. It counts as cell-based.

Each structure is given as a SMILES string.

What is called pKa is the negative logarithm of the acid dissociation constant.

In the case of `C=C(C)C(=O)O` [methacrylic acid], in data set [1], the pKa was 6.5.

As for `C=CC(=O)O` [acrylic acid], in data set [1], the pKa was 4.5. For the compound `NC(=O)c1ncn([C@@H]2O[C@H](CO)[C@@H](O)[C@H]2O)n1` [Ribavirin], the “Effect on proliferation of Ebola virus (qRT-PCR cycle number)” value in the data set on Ebola virus is reported as “no measurable effect”. Besides, the “Activity against measles infectivity” value with Measles is “no activity”.

The record behind these values is patent publication US20190076467A1, “ANTIVIRAL CONJUGATES OF P[…] AND ANTIVIRAL DRUG” (priority 2015, published 2019).
